Activity calls are given as the source filed them. The calls are words filed in the database; no cut-off is given here.
Columns and labels:
Staphylococcus aureus [1] = test: Disruption of cell membrane integrity in methicillin-resistant Staphylococcus aureus NCTC10442 assessed as increase in red fluorescence at 8 time of MIC measured after 15 mins by SYTO 9/PI staining based laser confocal microscopic analysis; assay type: functional, organism-based
[2] = Cytotoxicity against HEK293 cells assessed as viable cells at 3.125 ug/ml incubated for 24 hrs by CCK-8 assay relative to control; assay type: toxicity, cell-based; settings: human, at 3.125 µg/mL, read-out: Activity
[3] = Cytotoxicity against mouse NCTC clone 929 cells assessed reduction in cell viability incubated for 24 hrs by CCK-8 assay; assay type: toxicity, cell-based; settings: NCTC clone 929 (L929) cells
Staphylococcus aureus [4] = test: Bactericidal activity against methicillin-resistant Staphylococcus aureus NCTC10442 assessed as cell killing at 4 times of MIC measured with in 2 hrs by time kill assay relative to control; assay type: functional
Staphylococcus aureus [5] = test: Bactericidal activity against Staphylococcus aureus ATCC29213 assessed as log reduction in bacterial load at 8 times of MIC measured with in 4 hrs by time kill assay; assay type: functional
Acinetobacter baumannii = test: Antibacterial activity against Acinetobacter baumannii R28889 assessed as reduction in microbial growth incubated for 22 to 24 hrs by CLSI based broth microdilution method; assay type: functional; settings: time 22-24 hrs
Staphylococcus aureus [6] = test: Antibacterial activity against Staphylococcus aureus ATCC29213 infected in C57BL6 mouse corneal infection model assessed as bacterial killing at 0.5 % administered topically on corneas for four times in 3 days by MHA plate counting method relative to control; assay type: functional; settings: route top, time 3 day
Klebsiella pneumoniae = test: Synergistic […] activity against Klebsiella pneumoniae ATCC10031 assessed as fractional inhibitory concentration index incubated for 22 to 24 hrs in presence of gentamicin by CLSI based broth microdilution method; assay type: functional; settings: time 22-24 hrs
Staphylococcus aureus [7] = test: Antibacterial activity against methicillin-resistant Staphylococcus aureus NCTC10442 assessed as reduction in bacterial growth incubated for 22 to 24 hrs in presence of NaCl by CLSI based broth microdilution method; assay type: functional; settings: time 22-24 hrs
Staphylococcus aureus [8] = test: Antibacterial activity against methicillin-resistant Staphylococcus aureus NCTC10442 assessed as reduction in bacterial growth incubated for 22 to 24 hrs in presence of ZnSO4.7H2O by CLSI based broth microdilution method; assay type: functional; settings: time 22-24 hrs
[9] = Cytotoxicity against HEK293 cells assessed as viable cells at 12.5 ug/ml incubated for 24 hrs by CCK-8 assay relative to control; assay type: toxicity, cell-based; settings: human, at 12.5 µg/mL, read-out: Activity

In the case of `COC(=O)[C@H](CCCNC(=N)N)NC(=O)[C@H](CCCNC(=N)N)NC(=O)COc1ccc(S(=O)(=O)c2ccc(OC/C=C(/C)CCC=C(C)C)cc2)cc1`, the Activity (Staphylococcus aureus [1]) is reported as “Active”, the viability at 24 h, 3.125 ug/ml [2] is reported as 102% and the CC50 at 24 h [3] is reported as over 100 µg/mL. The Activity (Staphylococcus aureus [4]) was 99.99%, the “log(activity)” value (Staphylococcus aureus [5]) was 3 and the MIC (Acinetobacter baumannii) was 6.25 µg/mL. The Activity (Staphylococcus aureus [6]) was 99.99%, the “fractional inhibitory concentration index (FICI)” value (Klebsiella pneumoniae) was 0.5 and the MIC (Staphylococcus aureus [7]) was 1.56 µg/mL. For the same compound, the MIC (Staphylococcus aureus [8]) was 1.56 µg/mL and the viability at 24 h, 12.5 ug/ml [9] was 94.2%.
